Converted amounts (≈) assume the structure as drawn.
Tests used:
[1] = tested on: methicillin-resistant S. aureus (MRSA) ATCC 33592; experiment: MIC, antibiotic susceptibility testing, MRSA; format: cell-based, Staphylococcus aureus; details: for fold enhancement against MRSA when compared to neomycin: vs neomycin
Experimental: (§1) Standard reference antibiotic susceptibility testing methods (NCCLS[CLS] (Clinical and Laboratory Standards Institute, 2006)) agar or dilutional methods was used to assess the activity of all prepared antimicrobials. Compounds were tested against Gram-positive strains including S. aureus, methicillin-resistant S. aureus (MRSA), S. epidermidis, methicillin-resistant S. epidermidis (MRSE) and S. pneumoniae as well as Gram-negative strains E. coli, gentamycin resistant E. coli and P. aeruginosa. Gentamycin and neomycin served as positive controls. MIC values defined as the lowest concentration of antimicrobial agent which inhibits the development of visible growth after 24 h at 37° C. was determined.
(§2) The minimum inhibitory concentrations (MIC) in μg/mL were determined using established methods (Clinical and Laboratory Standards Institute, 2006) and are shown in Table 3 (FIG. 17). Gentamicin, neomycin B and kanamycin A served as positive controls.

[2] = tested on: P. aeruginosa (ATCC 27853); experiment: MIC, P. aeruginosa (compounds 13-31); format: cell-based, Pseudomonas aeruginosa; details: in words; among neomycin-lipid conjugates
Experimental: as §1

[3] = tested on: Gram-positive organisms (ATCC and CAN-ICU strains); experiment: MIC, Gram-positive organisms (compounds ending in A); format: cell-based; details: in words; Table 3 organisms
Experimental: as §2

[4] = tested on: Gram-negative organisms (ATCC and CAN-ICU strains); experiment: MIC, Gram-negative organisms (compounds ending in A); format: cell-based; details: in words; Table 3 organisms
Experimental: as §2

[5] = tested on: gentamycin resistant E. coli (ATCC 6174); experiment: MIC, gentamycin resistant E. coli (compounds 13-31); format: cell-based; details: in words
Experimental: as §1

[6] = tested on: E. coli (ATCC 25922); experiment: MIC, E. coli (compounds 13-31); format: cell-based; details: in words
Experimental: as §1

[7] = tested on: Microorganisms from ATCC and CAN-ICU; experiment: MIC, all investigated bacteria (compounds ending in A); format: cell-based; details: in words; vs 4A
Experimental: as §2

[8] = tested on: methicillin-resistant S. epidermidis (MRSE) (ATCC 14990); experiment: MIC, antibiotic susceptibility testing, MRSE (compounds 13-31); format: cell-based, Staphylococcus epidermidis; details: vs kanamycin A
Experimental: as §1

[9] = tested on: MRSA; details: fatty acid against MRSA; cited from earlier work
[10] = tested on: MSSA (methicillin-susceptible S. aureus); details: fatty acid against MSSA; cited from earlier work

For “1,3,2′,6′,2′″,6″-Hexaammonium-5″-deoxy-5″-N-(hexadecanoyl)-neomycin hexakis(trifluoroacetate) [Compound 15]”, the “fold enhancement against MRSA when compared to neomycin” value ([1]; MRSA) was 32 fold.
With “1,3,2′,6′,2′″,6″-Hexaammonium-5″-deoxy-5″-N-(nonadecanoyl)-neomycin hexakis(trifluoroacetate) [Compound 16]” the “antimicrobial activity against P. aeruginosa” value [2] was “optimal” and the “fold enhancement against MRSA when compared to neomycin” value ([1]; MRSA) was 32 fold.
Compound neomycin [reference compound] has an MIC ([1]; against MRSA, 24 h at 37° C.) of roughly 8 µg/mL.
For “3,6′,3″,1′″-Tetraammonium-5,2′,4′,2″,3″,4″-hexa-O-phenylcarbamoyl-6″-deoxy-amikacin-tetrafluoroacetate [Compound 20A]”, the Gram-positive antibacterial activity [3] was “reduced” and the Gram-negative activity [4] was “poor”.
In the case of `CCCCCC(=O)NCC1OC(OC2C(O)C(N)CC(N)C2OC2OC(CN)C(O)C(O)C2N)C(O)C1OC1OC(CN)C(O)C(O)C1N.O=C(O)C(F)(F)F.O=C(O)C(F)(F)F.O=C(O)C(F)(F)F.O=C(O)C(F)(F)F.O=C(O)C(F)(F)F.O=C(O)C(F)(F)F` (stereo not drawn) [Compound 13, 1,3,2′,6′,2′″,6″-Hexaammonium-5″-deoxy-5″-N-(hexanoyl)-neomycin hexakis(trifluoroacetate)], the “activity against gentamycin-resistant E. coli relative to the C16- or C20-lipid conjugates” value [5] is reported as “stronger activity” and the “activity against E. coli relative to the C16- or C20-lipid conjugates” value [6] is reported as “stronger activity”.
With “1,3,2′,6′-Tetraammonium-4,5,3′,4′-tetra-O-phenylcarbamoyl-neamine-tetrafluoroacetate [Compound 17A]” the Gram-positive antibacterial activity [3] was “reduced” and the Gram-negative activity [4] was “higher”.
In the case of “4,3′,4′,2″,5″3′″,4″-Hexa-O-phenylcarbamoyl-1,3,2′,6′,2′″,6′″-hexa-N-(guanidinyl)-5″-deoxy-neomycin-hexafluoroacetate [Compound 9A]”, the “antibacterial activity when compared to 4A” value [7] is reported as “slightly reduced”.
In the case of “1,3,2′,6′,2′″,6′″-Hexaammonium-6,3′,4′,2″,5″,4′″-hexa-β-phenylcarbamoyl-5″-hexadecanoyl-5″-deoxy-neomycin-hexafluoroacetate [Compound 7A]”, the Gram-positive antibacterial activity [3] is reported as “poor” and the Gram-negative activity [4] is reported as “poor”.
For `CCCCCCCCCCCCCCCC(=O)NCC1OC(OC2C(N)CC(N)C(OC3OC(CN)C(O)C(O)C3O)C2O)C(O)C(N)C1O.O=C(O)C(F)(F)F.O=C(O)C(F)(F)F.O=C(O)C(F)(F)F.O=C(O)C(F)(F)F` (stereo not drawn) [Compound 30, 1,3,6′,3″-Tetraammonium-6″-deoxy-6″-N-(hexadecanoyl)-kanamycin-tetrakis-(trifluoroacetate)], the “fold enhancement in antimicrobial activity against MRSE when compared to unmodified kanamycin A” value [8] was 56 fold and the “fold enhancement in antimicrobial activity against MRSA when compared to unmodified kanamycin A” value ([1]; MRSA, vs kanamycin A) was 35 fold.
In the case of `CCCCCCCCCCCC(=O)O` [lauric acid], the MIC [9] is listed as 400 µg/mL (≈ 2000 µM) and the MIC [10] is listed as 400 µg/mL (≈ 2000 µM).
In the case of “1,3,6′,3″-Tetraammonium-5,2′,4′,2″,3″,4″-hexa-O-phenylcarbamoyl-6″ hexadecanoyl-6″-deoxy-kanamycin-tetrafluoroacetate [Compound 14A]”, the Gram-positive antibacterial activity [3] is reported as “poor” and the Gram-negative activity [4] is reported as “poor”.
With “1,3,6′,3″-Tetraammonium-5,2″,4″,6″,2′″,3′″,4′″-hepta-β-phenylcarbamoyl-6″-deoxy-kanamycin-tetrafluoroacetate [Compound 11A]” the Gram-positive antibacterial activity [3] was “reduced” and the Gram-negative activity [4] was “poor”.

Source: US8865664B2, “Hydrophobically enhanced aminoglycosides” (University of Manitoba, priority 2008, dated 2014)
